Assay results taken from US7022700B2, “Method of increasing neutrophil production using optically-pure (R)-2,3-benzodiazepines” (Vela Pharmaceuticals, Inc., priority 2002, dated 2006).
Marks after values point to notes of the source that are not given here.

Columns and labels:
[1] = system: central benzodiazepine (BZ) receptors; settings: cited from earlier work
peripheral BZ receptors = peripheral BZ receptors (Homo sapiens, UniProt P30536); settings: cited from earlier work
lymphocyte = settings: in vitro; cited from earlier work
IL-2 production = settings: in vitro; cited from earlier work
[2] = system: neutrophil production (absolute neutrophil count); experiment: Increase in neutrophil production in 16-day study in rat; format: in vivo
Protocol: Animals were identified using an implanted microchip identification device encoded with a unique number. Each animal was dosed daily via oral gavage with either a test substance (R-tofisopam) or control, starting on Day 1 and through day 15. The control article was 0.5% low viscosity carboxymethylcellulose (CMC) (Lot No. 74231) and 0.4% Tween 80® (lot no. QJ1033) in reverse osmosis water.
The animals were sacrificed on Day 16 (with the exception of three males and one female which died on test or was sacrificed before the scheduled termination, and which are not included in the mean neutrophil count data). Neutrophil counts in Table 2, below, are reported as a mean value of the count for the animals of each group surviving and sacrificed on Day 16.
The normal range of absolute neutrophil counts is […] for male and 0.2–2.4×10^3 cells/μL for female rats. For each sex, groups 2–4 were compared with the control group (Group 1M or 1F). Group comparisons were evaluated at the 5.0%, two-tailed probability level. Data marked with * represents a statistically significant difference from the corresponding control group.

[3] = in vivo; cited from earlier work
[4] = female rats, group 2F, 100 mg/kg/day oral gavage days 1-15
[5] = female rats, group 3F, 200 mg/kg/day oral gavage days 1-15
[6] = female rats, group 4F, 400 mg/kg/day oral gavage days 1-15
[7] = male rats, group 2M, 100 mg/kg/day oral gavage days 1-15
[8] = male rats, group 3M, 200 mg/kg/day oral gavage days 1-15
[9] = male rats, group 4M, 400 mg/kg/day oral gavage days 1-15

Sequence of peripheral BZ receptors (P30536 whole entry): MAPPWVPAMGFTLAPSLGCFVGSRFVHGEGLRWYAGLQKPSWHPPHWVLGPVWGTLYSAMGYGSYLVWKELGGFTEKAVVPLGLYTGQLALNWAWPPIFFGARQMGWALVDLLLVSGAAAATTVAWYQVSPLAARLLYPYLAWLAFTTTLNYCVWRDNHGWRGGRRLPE

In the case of CCC1C(C)=NN=C(c2ccc(OC)c(OC)c2)c2cc(OC)c(OC)cc21 (racemic) [tofisopam], the “interaction with central benzodiazepine (BZ) receptors” value [1] is given as “does not interact”, the “binding to peripheral BZ receptors” value (peripheral BZ receptors) is given as “binds only weakly” and the mitogen-induced lymphocyte proliferation (lymphocyte) is given as “enhances”. The IL-2 production (IL-2 production) was “enhances”.

With CC[C@H]1C(C)=NN=C(c2ccc(OC)c(OC)c2)c2cc(OC)c(OC)cc21 [R-tofisopam, (R)-1-(3,4-dimethoxyphenyl)-4-methyl-5-ethyl-7,8-dimethoxy-5H-2,3-benzodiazepine] the “Mean % change (day 16)” value [2, 4] was 29* %, the “Mean Neutrophil count (day 16)” value [2, 4] was 2.4* × 10^3/μL and the “Mean % change (day 16)” value [2, 5] was 47* %. The “Mean Neutrophil count (day 16)” value [2, 5] was 6.0* × 10^3/μL, the “Mean % change (day 16)” value [2, 6] was 63* % and the “Mean Neutrophil count (day 16)” value [2, 6] was 11.6* × 10^3/μL. The “neutrophil levels versus control group” value ([2]; male and female rats, 100-400 mg/kg/day oral gavage, 5.0% two-tailed probability level) was “significantly increased in a dose-dependant manner”, the “Mean % change (day 16)” value [2, 7] was 43* % and the “Mean Neutrophil count (day 16)” value [2, 7] was 5.7* × 10^3/μL. For the same molecule, the “Mean % change (day 16)” value [2, 8] was 45* %, the “Mean Neutrophil count (day 16)” value [2, 8] was 7.4* × 10^3/μL and the “Mean % change (day 16)” value [2, 9] was 57* %. The “Mean Neutrophil count (day 16)” value [2, 9] was 12.9* × 10^3/μL.

B1: Neulasta: a longer acting derivative of filgrastim (protein, chains of the INN, looked up)
chain: TPLGPASSLPQSFLLKCLEQVRKIQGDGAALQEKLCATYKLCHPEELVLLGHSLGIPWAPLSSCPSQALQLAGCLSQLHSGLFLYQGLLQALEGISPELGPTLDTLQLDVADFATTIWQQMEELGMAPALQPTQGAMPAFASAFQRRAGGVLVASHLQSFLEVSYRVLRHLAQP
modifications: PEG 20 kDa
notes: a longer acting derivative of filgrastim
For B1, the elimination half-life [3] is listed as 15 to 80 h.

B2: Nupogen: recombinant version of a human protein, G-CSF (granulocyte-colony stimulating factor) (protein, chains of the INN, looked up)
chain: MTPLGPASSLPQSFLLKCLEQVRKIQGDGAALQEKLCATYKLCHPEELVLLGHSLGIPWAPLSSCPSQALQLAGCLSQLHSGLFLYQGLLQALEGISPELGPTLDTLQLDVADFATTIWQQMEELGMAPALQPTQGAMPAFASAFQRRAGGVLVASHLQSFLEVSYRVLRHLAQP
For B2, the elimination half-life [3] is given as 3.5 h.
